# In patent US11834450B2, “Compounds having ((3-nitrophenyl)sulfonyl)acetamide as BCL-2 inhibitors” (Eil Therapeutics, Inc., priority 2021, dated 2023):
# What was measured:
# [1] = Cell viability assay HEK293 (CellTiter-Glo); type: cell-based; conditions: human, HEK293 cells, read-out: HEK293 (CC50 code)
# Method: (§1) Assay Condition: Used culture medium for HEK293-DMEM (PanEco, Cat #C420), for the rest of the cell lines—culture medium RPMI-1640 (PanEco, Cat #C363).
# (§2) Assay Procedure: Compounds were prepared as 200× stocks with serial dilution in 100% DMSO with a final concentration of 1×. Dispersed 40 μl in 384-well plates at a concentration of 2000 cells per well for HEK293 and at a concentration of 4000 cells per well for the rest of the cell lines using a robotic station Biomek (Beckman). Before adding compounds, the cells were incubated at 37° C. (HEK293 were incubated for a day before adding compounds).
# (§3) A dilution plate was prepared by pouring 78 μl of the appropriate culture medium using a robotic station Biomek (Beckman). Sequentially, using a robotic station, 2 μl of substances were taken and added to 78 μl of culture medium (dilution of compounds 40×). Took from there 10 μl and added to the plates to the cells (dilution of compounds 5×). The plates were incubated for 3 days at a temperature 37° C. After 3 days, 10 μl of CellTiter-Glo (Promega) was added to the cells and the luminescence was measured.
# [2] = test system: RS4-11 cells; assay: Cell viability assay RS4-11 (CellTiter-Glo); type: cell-based; conditions: Homo sapiens, 72 h; RS4-11 cells, 3 days, CellTiter-Glo; read-out: RS4-11 (CC50 code)
# Method: as §1, §2, §3
# [3] = test system: caspase-3 and -7 activities in RS4-11 cells; assay: Cas-3/7 activation (Caspase-Glo 3/7) in RS4-11 cells; type: cell-based; conditions: Homo sapiens, 3.5 h at 37° C. and 30 min at r.t., read-out: Cas-3/7 (EC50 code)
# Method: Assay Principle: The Caspase-Glo 3/7 Assay is homogeneous, luminescent assay that measures caspase-3 and -7 activities. The assay provides a luminogenic caspase-3/7 substrate, which contains the tetrapeptide sequence DEVD, in a reagent optimized for caspase activity.
# Assay Procedure: Incubate RS4-11 cells with varying concentrations of test compounds for 3.5 h in a humidified incubator at 37° C. and 5% CO2 and 30 min at r.t. Add 15 μl Caspase-Glo reagent to each well and incubate the plate for 30 min at r.t. Read on ClarioStar Plus instrument.
# Materials: Promega Caspase-Glo (Promega, #8212); Frozen RS4-11 cells; 384-well white plate (Corning, #3570).
# Instrumentation: ClarioStar Plus; Biomek FX for liquid handling (Beckman Coulter).
# [4] = test system: MOLT-4 cells; assay: Cell viability assay MOLT-4 (CellTiter-Glo); type: cell-based; conditions: Homo sapiens, 72 h; MOLT-4 cells, 3 days, CellTiter-Glo; read-out: MOLT-4 (CC50 code)
# Method: as §1, §2, §3
# [5] = molecular target: T1, BCL-2 (Homo sapiens, UniProt P10415); assay: BCL-2 TR-FRET Assay (primary PPI inhibition); type: binding; conditions: 60 min incubation; read-out: BCL2 (IC50 code, BCL-2 TR-FRET)
# T1 construct: purchased BPS Bioscience #50222
# T1 sequence (P10415 whole entry): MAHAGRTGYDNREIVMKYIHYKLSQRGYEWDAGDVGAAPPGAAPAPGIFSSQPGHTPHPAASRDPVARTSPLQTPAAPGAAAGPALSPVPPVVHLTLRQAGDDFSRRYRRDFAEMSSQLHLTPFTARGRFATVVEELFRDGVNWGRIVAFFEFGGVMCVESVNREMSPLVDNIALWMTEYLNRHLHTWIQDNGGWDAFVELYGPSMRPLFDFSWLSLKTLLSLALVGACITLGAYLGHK
# [6] = molecular target: T2, BCL-XL (Homo sapiens, UniProt Q07817); assay: BCL-XL TR-FRET Assay (primary PPI inhibition); type: binding; conditions: 60 min incubation; read-out: BCLxL (IC50 code, BCL-XL TR-FRET)
# T2 construct: purchased BPS Bioscience #50223
# T2 sequence (Q07817 whole entry): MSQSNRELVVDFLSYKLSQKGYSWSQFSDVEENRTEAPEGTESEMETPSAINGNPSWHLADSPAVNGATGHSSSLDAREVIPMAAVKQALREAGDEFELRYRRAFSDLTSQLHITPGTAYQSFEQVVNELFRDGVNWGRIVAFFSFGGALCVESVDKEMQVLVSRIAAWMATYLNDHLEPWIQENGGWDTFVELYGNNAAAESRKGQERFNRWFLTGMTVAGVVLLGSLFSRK
# Method: BCL-XL TR-FRET Assay (BPS Bioscience, #50223) Assay Condition: The following assay concentrations and times were used: 10.5 ng BCL-XL, 5 ul of 1:100 anti-His Tb-labeled donor, 5 ul of 1:100 Dye-labeled acceptor, 5 ul of 1:80 BCL-XL Peptide Ligand, and 2 ul of test compound, with 60 min incubation time. The results of the assay were read using a Clariostar (BMG Labtech) plate reader with the following parameters: TR FRET, 340 ex/620 and 665 em; 60 μsec Delay; and 500 μsec integration.
EC50 [3] [µM],IC50 [5] [µM],IC50 [6] [µM],SMILES,CC50 at 3 days [1] [µM],CC50 [2] [µM],CC50 [4] [µM]
> 0.25,–,–,"CC(C)C(=O)N1C[C@H](CN2CCN(c3ccc(C(=O)NS(=O)(=O)c4ccc(NCC5CCOCC5)c([N+](=O)[O-])c4)c(Oc4cnc5[nH]ccc5c4)c3)CC2)[C@@H](c2ccc(Cl)cc2)C1 [Compound 30, 4-[4-[[(3S,4S)-4-(4-chlorophenyl)-1-(2-methylpropanoyl)pyrrolidin-3-yl]methyl]piperazin-1-yl]-N-[3-nitro-4-(tetrahydropyran-4-ylmethylamino)phenyl]sulfonyl-2-(1H-pyrrolo[2,3-b]pyridin-5-yloxy)benzamide]",> 25,> 0.2,2 to 10
0.1 to 0.25,–,–,"CC1=CC[C@H](CN2CCN(c3ccc(C(=O)NS(=O)(=O)c4ccc(NCC5CCOCC5)c([N+](=O)[O-])c4)c(Oc4cnc5[nH]ccc5c4)c3)CC2)[C@@H](c2ccc(Cl)cc2)C1 [Compound 31, 4-[4-[[(1S,6S)-6-(4-chlorophenyl)-4-methyl-cyclohex-3-en-1-yl]methyl]piperazin-1-yl]-N-[3-nitro-4-(tetrahydropyran-4-ylmethylamino)phenyl]sulfonyl-2-(1H-pyrrolo[2,3-b]pyridin-5-yloxy)benzamide]",10 to 25,0.1 to 0.2,2 to 10
> 0.25,–,–,"O=C(NS(=O)(=O)c1ccc(NCC2CCOCC2)c([N+](=O)[O-])c1)c1ccc(N2CCN(C[C@@H]3Cc4cc(Cl)ccc4CN3C(=O)C3CC3)CC2)cc1Oc1cnc2[nH]ccc2c1 [Compound 42, 4-[4-[[(3S)-6-chloro-2-(cyclopropanecarbonyl)-3,4-dihydro-1H-isoquinolin-3-yl]methyl]piperazin-1-yl]-N-[3-nitro-4-(tetrahydropyran-4-ylmethylamino)phenyl]sulfonyl-2-(1H-pyrrolo[2,3-b]pyridin-5-yloxy)benzamide]",> 25,> 0.2,2 to 10
> 0.25,> 0.05,–,"O=C(NS(=O)(=O)c1ccc(NCC2CCOCC2)c([N+](=O)[O-])c1)c1ccc(N2CCC(CN3CCCCCC3c3ccc(Cl)cc3)CC2)cc1Oc1cnc2[nH]ccc2c1 (stereo not drawn) [Compound 44, 4-[4-[[2-(4-chlorophenyl)azepan-1-yl]methyl]-1-piperidyl]-N-[3-nitro-4-(tetrahydropyran-4-ylmethylamino)phenyl]sulfonyl-2-(1H-pyrrolo[2,3-b]pyridin-5-yloxy)benzamide]",> 25,> 0.2,2 to 10
–,> 0.05,> 4,"Cn1ncc(Oc2cc(N3CCC(CN4CCCCC4c4ccc(Cl)cc4)CC3)ccc2C(=O)NS(=O)(=O)c2ccc(NCC3CCOCC3)c([N+](=O)[O-])c2)cc1=O (stereo not drawn) [Compound 65, 4-[4-[[2-(4-chlorophenyl)-1-piperidyl]methyl]-1-piperidyl]-2-(1-methyl-6-oxo-pyridazin-4-yl)oxy-N-[3-nitro-4-(tetrahydropyran-4-ylmethylamino)phenyl]sulfonyl-benzamide]",10 to 25,> 0.2,> 10
–,> 0.05,> 4,"O=C(NS(=O)(=O)c1ccc(NCC2CCOCC2)c([N+](=O)[O-])c1)c1ccc(N2CCN(C[C@@H]3CC(F)CN3c3ccc(Cl)cc3)CC2)cc1Oc1cnc2[nH]ccc2c1 (stereo partly drawn) [Compound 66, 4-[4-[[(2S)-1-(4-chlorophenyl)-4-fluoro-pyrrolidin-2-yl]methyl]piperazin-1-yl]-N-[3-nitro-4-(tetrahydropyran-4-ylmethylamino)phenyl]sulfonyl-2-(1H-pyrrolo[2,3-b]pyridin-5-yloxy)benzamide]",10 to 25,> 0.2,2 to 10
> 0.25,0.01 to 0.05,–,"O=C(NS(=O)(=O)c1ccc(NCC2CCOCC2)c([N+](=O)[O-])c1)c1ccc(N2CCN(CC3CCC=CC3c3ccc(Cl)cc3)CC2)cc1Oc1cnc2[nH]ccc2c1 (stereo not drawn) [Compound 67, 4-[4-[[2-(4-chlorophenyl)cyclohex-3-en-1-yl]methyl]piperazin-1-yl]-N-[3-nitro-4-(tetrahydropyran-4-ylmethylamino)phenyl]sulfonyl-2-(1H-pyrrolo[2,3-b]pyridin-5-yloxy)benzamide]",–,–,–
–,> 0.05,> 4,"O=C(NS(=O)(=O)c1ccc(NCC2CCOCC2)c([N+](=O)[O-])c1)c1ccc(N2CCN(C[C@H]3[C@H](c4ccc(Cl)cc4)[C@@H]4C=C[C@H]3C4)CC2)cc1Oc1cnc2[nH]ccc2c1 [Compound 68, 4-[4-[[(1R,2R,3R,4S)-3-(4-chlorophenyl)-2-bicyclo[2.2.1]hept-5-enyl]methyl]piperazin-1-yl]-N-[3-nitro-4-(tetrahydropyran-4-ylmethylamino)phenyl]sulfonyl-2-(1H-pyrrolo[2,3-b]pyridin-5-yloxy)benzamide]",10 to 25,> 0.2,2 to 10
–,> 0.05,> 4,"O=C1CC[C@H](CN2CCN(c3ccc(C(=O)NS(=O)(=O)c4ccc(NCC5CCOCC5)c([N+](=O)[O-])c4)c(Oc4cnc5[nH]ccc5c4)c3)CC2)[C@@H](c2ccc(Cl)cc2)N1 [Compound 70, 4-[4-[[(2S,3R)-2-(4-chlorophenyl)-6-oxo-3-piperidyl]methyl]piperazin-1-yl]-N-[3-nitro-4-(tetrahydropyran-4-ylmethylamino)phenyl]sulfonyl-2-(1H-pyrrolo[2,3-b]pyridin-5-yloxy)benzamide]",10 to 25,> 0.2,> 10
–,0.01 to 0.05,2 to 4,"O=C(NS(=O)(=O)c1ccc(NCCCN2CCOCC2)c([N+](=O)[O-])c1)c1ccc(N2CCC(CN3CCCCC3c3ccc(Cl)cc3)CC2)cc1Oc1cnc2[nH]ccc2c1 (stereo not drawn) [Compound 73, 4-[4-[[2-(4-chlorophenyl)-1-piperidyl]methyl]-1-piperidyl]-N [4-(3-morpholinopropylamino)-3-nitro-phenyl]sulfonyl-2-(1H-pyrrolo[2,3-b]pyridin-5-yloxy)benzamide]",10 to 25,> 0.2,2 to 10
–,0.01 to 0.05,2 to 4,"C[C@]1(O)CC[C@H](CN2CCN(c3ccc(C(=O)NS(=O)(=O)c4ccc(NCC5CCOCC5)c([N+](=O)[O-])c4)c(Oc4cnc5[nH]ccc5c4)c3)CC2)[C@@H](c2ccc(Cl)cc2)C1 [Compound 74, 4-[4-[[(1S,2S,4S)-2-(4-chlorophenyl)-4-hydroxy-4-methyl-cyclohexyl]methyl]piperazin-1-yl]-N-[3-nitro-4-(tetrahydropyran-4-ylmethylamino)phenyl]sulfonyl-2-(1H-pyrrolo[2,3-b]pyridin-5-yloxy)benzamide]",10 to 25,> 0.2,2 to 10
–,> 0.05,> 4,"O=C1CC[C@]2(c3ccc(Cl)cc3)C[C@@]2(CN2CCN(c3ccc(C(=O)NS(=O)(=O)c4ccc(NCC5CCOCC5)c([N+](=O)[O-])c4)c(Oc4cnc5[nH]ccc5c4)c3)CC2)C1 [Compound 77, 4-[4-[[(1R,6R)-6-(4-chlorophenyl)-3-oxo-norcaran-1-yl]methyl]piperazin-1-yl]-N-[3-nitro-4-(tetrahydropyran-4-ylmethylamino)phenyl]sulfonyl-2-(1H-pyrrolo[2,3-b]pyridin-5-yloxy)benzamide]",10 to 25,> 0.2,2 to 10
